For one series, the system named is MCF-7. Briefly: MTT cell viability assay, MCF-7. The conditions noted are these: for EC50: Table 2. The format is cell-based.
A further series is described as follows: Solubility. The class given is physicochemical.
The next series can be described thus: Microsomal stability. The class given is in vitro ADME.
A short description of series [1]: Tolerability in mice based on weight. The note with it: daily i.p. 5 mg/kg/day, male CD1 mice. The format is in vivo. How it is done: Analogs were delivered daily to male CD1 mice by i.p. at 5 mg/kg/day. Five mice per group. Error bars represent SEM.
The subject of series [2] is Hsp70 clients in MCF7 cells. Briefly: Western blot of Hsp70 clients in MCF7 cells. The class given is cell-based. The conditions noted are these: 24 hrs. The protocol: Cells were treated for 24 hrs with compound, lysed and Western blots performed.
The next series deals with MDA-MB-231. The series can be described thus: MTT cell viability assay, MDA-MB-231. The format is cell-based. The note with it: Homo sapiens, MDA-MB-231, 72-hour incubation.
Another series deals with MEF (C57BL/6). Briefly: MTT cell viability assay, MEF (C57BL/6). The class given is cell-based. The conditions noted are these: Mus musculus.
For another series, the system named is IMR-90. Briefly: Cell viability, IMR-90. The format is cell-based. The note with it: Homo sapiens, IMR-90; Table 2. How it is done:
Cells were then treated with compound at various concentrations in 0.2 mL media. After the 72-hour incubation period, cells were washed in PBS (3×100 μL), and 10 μL MTT reagent was added with 100 μL fresh media. Cells were then incubated for 4 hr in a humidified chamber at 37° C. with 5% CO2. Insoluble formazan crystals were solubilized by addition of 0.1 mL detergent solution (4 hr at room temp., dark). Resulting colored solutions were then quantified at an absorbance of 570 nm.

Series [3] can be described thus: Pharmacokinetics in CD1 mice, single i.p. injection, plasma by HPLC. The class given is in vivo. The protocol: A single injection of compound was delivered to CD1 mice by i.p. and the plasma collected at the indicated times. Compound levels were calculated by HPLC, using a standard curve.
The test system of series [4] is multiple myeloma cell lines. Briefly: MTT cell viability in multiple myeloma cell lines. The format is cell-based. The note with it: cell viability after 48 hrs, percentage of solvent control (1% DMSO). The source says:
Results are shown as a percentage of a solvent control (1% DMSO). Results are the average of experiments performed in triplicate. Error bars represent SEM.

Another series relates to Xenografts of MCF7 cells. Briefly: Hsp70 client destabilization in MCF7 xenografts, western blot. The format is in vivo. The note with it: 5 mg/kg/day for three days, western blot of tumors. The protocol:
Xenografts of MCF7 cells were treated by delivery of compound in saline 5 mg/kg/day dosed for three days, after which tumors were harvested for western blot. Results from three separate animals are shown.

In the series on MCF-7, `CCn1c(=O)/c(=C2\Sc3cc(Cl)ccc3N2C)s/c1=C\c1scc[n+]1Cc1ccc(Br)s1.[Cl-]` [JG-231, reference compound] yielded an EC50 of 0.12 ± 0.01 µM. In “Solubility”, this compound yielded a solubility of 16 µM. Also, the Microsomal min in the series “Microsomal stability” is on record as above 60 min. For the same compound, the “tolerated in mice, based on weight” value in series [1] is reported as “tolerated in mice”. Further, the “destabilization of Hsp70 clients (c-Raf and other clients)” value in [2] is “destabilize c-Raf and other clients”.

Consider `CCc1ccc2c(c1)S/C(=c1/s/c(=C\c3scc[n+]3Cc3ccccc3C(=O)OC)n(CC)c1=O)N2C.[Cl-]` [JG-345], for which the IC50 in the series on MCF-7 (Homo sapiens, MCF7, 72 h, read-out: IC50/μM MCF-7) was 0.049 ± 0.003 µM; in the series with MDA-MB-231, 0.046 ± 0.006 µM; in the series on MEF (C57BL/6) (MTT, 72-hour incubation, read-out: IC50/μM MEF (C57BL/6)) it was 1 ± 0.1 µM. Further, the 50% effective concentration (EC50) in the series on MCF-7 (Homo sapiens, MCF7) stood at 0.049 ± 0.003 µM; in the series on MEF (C57BL/6) (Table 2) it was 1 ± 0.1 µM; in the series on IMR-90, 3.2 ± 0.7 µM. In “Microsomal stability”, the Microsomal min stood at 25 min. Further, the t1/2/h in series [3] is recorded as 11.4 h. Moreover, in series [4], the “anti-proliferative activity against multiple myeloma cell lines” value is “anti-proliferative activity”. Further, the “tolerated in mice, based on weight” value in series [1] was “tolerated in mice”. The “destabilization of Hsp70 clients (c-Raf and other clients)” value in series [2] is “destabilize c-Raf and other clients”. Besides, the “destabilization of Hsp70 clients in vivo” value in the series with Xenografts of MCF7 cells is recorded as “destabilized Hsp70 clients in vivo”.

For the origin of these results see patent US10221171B2, “Oxathiazole thiazolium Hsp 70 inhibitors” (THE REGENTS OF THE UNIVERSITY OF CALIFORNIA, priority 2015, dated 2019).
